Bounds are passed on as bounds.

In test [1] the target is T1, Beta-3 adrenergic receptor (Homo sapiens, UniProt P13945). Description: Inhibitory activity against human beta-3 adrenergic receptor (AR). The format is functional.
Target sequence in this assay (P13945 whole entry): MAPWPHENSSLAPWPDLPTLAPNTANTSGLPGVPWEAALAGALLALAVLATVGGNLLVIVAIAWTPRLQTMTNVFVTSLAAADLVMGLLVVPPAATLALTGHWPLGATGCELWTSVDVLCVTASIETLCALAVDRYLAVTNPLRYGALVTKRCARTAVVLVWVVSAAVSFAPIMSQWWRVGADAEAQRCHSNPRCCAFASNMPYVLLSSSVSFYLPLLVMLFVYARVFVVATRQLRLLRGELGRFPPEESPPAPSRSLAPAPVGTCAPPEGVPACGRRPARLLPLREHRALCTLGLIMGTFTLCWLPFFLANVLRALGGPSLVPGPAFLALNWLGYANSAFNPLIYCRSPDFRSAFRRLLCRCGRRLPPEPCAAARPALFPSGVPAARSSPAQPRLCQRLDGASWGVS
Test [2] has as its target T2, Beta-1 adrenergic receptor (Homo sapiens, UniProt P08588). Put plainly: Compound was evaluated for its inhibitory activity against CHO cells expressing the cloned human beta-1 adrenergic receptor (AR) in the presence of [125I]-iodocyanopindolol. The format is cell-based.
Target sequence in this assay (P08588 whole entry): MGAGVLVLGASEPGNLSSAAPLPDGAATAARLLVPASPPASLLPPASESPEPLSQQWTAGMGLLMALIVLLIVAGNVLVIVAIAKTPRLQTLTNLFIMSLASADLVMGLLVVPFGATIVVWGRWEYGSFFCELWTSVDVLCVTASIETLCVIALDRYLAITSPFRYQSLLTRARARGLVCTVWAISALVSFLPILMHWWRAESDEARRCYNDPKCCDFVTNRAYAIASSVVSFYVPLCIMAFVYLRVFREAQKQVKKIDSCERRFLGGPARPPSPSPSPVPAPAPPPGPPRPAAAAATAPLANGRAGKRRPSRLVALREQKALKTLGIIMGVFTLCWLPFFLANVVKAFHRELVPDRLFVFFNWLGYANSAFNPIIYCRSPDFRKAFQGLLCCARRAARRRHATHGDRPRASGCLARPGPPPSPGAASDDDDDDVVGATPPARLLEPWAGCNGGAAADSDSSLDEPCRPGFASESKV
Test [3] deals with T3, Beta-2 adrenergic receptor (Homo sapiens, UniProt P07550). Put plainly: Inhibitory activity against CHO cells expressing human Beta-2 adrenergic receptor with [125I]-iodocyanopindolol. The format is cell-based.
Target sequence in this assay (P07550 whole entry): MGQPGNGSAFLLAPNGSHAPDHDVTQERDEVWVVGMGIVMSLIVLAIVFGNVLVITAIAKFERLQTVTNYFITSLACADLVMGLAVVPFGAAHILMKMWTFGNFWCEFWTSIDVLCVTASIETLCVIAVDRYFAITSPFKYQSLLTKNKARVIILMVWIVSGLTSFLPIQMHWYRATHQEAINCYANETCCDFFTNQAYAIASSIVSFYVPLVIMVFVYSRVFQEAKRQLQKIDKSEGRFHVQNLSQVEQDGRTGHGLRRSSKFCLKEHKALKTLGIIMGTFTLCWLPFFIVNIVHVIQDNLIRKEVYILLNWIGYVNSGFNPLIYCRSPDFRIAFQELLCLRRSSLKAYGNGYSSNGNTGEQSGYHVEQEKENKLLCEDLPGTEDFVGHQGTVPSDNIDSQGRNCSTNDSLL
Test [4] concerns the target T1, Beta-3 adrenergic receptor. Put plainly: Adenylyl cyclase activation at human beta-3 adrenergic receptor (AR). Also on record: concentration or dose not given beside the values. The format is functional.
Target sequence in this assay (P13945 whole entry, looked up): as the sequence (P13945 whole entry) above
In test [5] the target is T3, Beta-2 adrenergic receptor. Description: Compound was evaluated for its inhibitory activity against human beta-2 adrenergic receptor (AR). The format is functional.
Target sequence in this assay (P07550 whole entry): as the sequence (P07550 whole entry) above
Test [6] has as its target T2, Beta-1 adrenergic receptor. Description: (§1) Compound was evaluated for its adenylyl cyclase activation at human beta-1 adrenergic receptor (AR). The format is functional. Set-up: concentration or dose not given beside the values.
Target sequence in this assay (P08588 whole entry, looked up): as the sequence (P08588 whole entry) above
The target in test [7] is T2, Beta-1 adrenergic receptor. Description: Compound was evaluated for its inhibitory activity against human beta-1 adrenergic receptor (AR). The format is functional.
Target sequence in this assay (P08588 whole entry): as above
Test [8] concerns the target T2, Beta-1 adrenergic receptor. Put plainly: Compound was evaluated for its inhibitory activity against CHO cells expressing the cloned human beta-1 adrenergic receptor (AR) in the presence of [125I]iodocyanopindolol. The format is functional, cell-based.
Target sequence in this assay (P08588 whole entry): as above
The target in test [9] is T2, Beta-1 adrenergic receptor. Put plainly: Compound was evaluated for its inhibitory activity against CHO cells expressing the cloned human Beta-1 adrenergic receptor in the presence of [125I]iodocyanopindolol. The format is cell-based.
Target sequence in this assay (P08588 whole entry): as above
In test [10] the target is T2, Beta-1 adrenergic receptor. The description is as §1.
Target sequence in this assay (P08588 whole entry, looked up): as the sequence (P08588 whole entry) above
Test [11] deals with T3, Beta-2 adrenergic receptor. Put plainly: Compound was evaluated for its inhibitory activity against CHO cells expressing the cloned human beta-2 adrenergic receptor (AR) in the presence of [125I]-iodocyanopindolol. The format is functional, cell-based.
Target sequence in this assay (P07550 whole entry): as the sequence (P07550 whole entry) above
The target of test [12] is T1, Beta-3 adrenergic receptor. Description: Compound was evaluated for its inhibitory activity against human beta-3 adrenergic receptor (AR) at a concentration of 100 nM. The format is functional.
Target sequence in this assay (P13945 whole entry): as the sequence (P13945 whole entry) above
The target of test [13] is T3, Beta-2 adrenergic receptor. Put plainly: Compound was evaluated for its adenylyl cyclase activation at human beta-2 adrenergic receptor (AR). The format is functional.
Target sequence in this assay (P07550 whole entry, looked up): as the sequence (P07550 whole entry) above

For `COc1cc(-c2ccc(CC3NCCc4cc(O)c(O)cc43)cc2)cc(OC)c1OC` (stereo not given), the EC50 (in general, the concentration needed to bring the measured effect to its halfway point) in test [1] came to 27 nM; in [5], 1500 nM; in test [7] it was 6100 nM. Moreover, the half-inhibitory concentration (IC50) (commonly the concentration that inhibits the measured activity by half) amounted to 1800 nM in [2] and 760 nM in [3]. Besides, the Activation in [4] is 77%; in [6], 45%.

In the case of `CCCCCCNC(=O)Nc1ccc(S(=O)(=O)Nc2cccc(-c3cccc(CC4NCCc5cc(O)c(O)cc54)c3)c2)cc1` (stereo not given), the EC50 is 360 nM in test [1], 2700 nM in test [5] and above 10000 nM in test [7]. In addition, the IC50 in test [3] is 710 nM; in [8], 530 nM. Besides, the Activation came to 62% in test [4] and 22% in test [6].

Take `CCCCCCNC(=O)Nc1ccc(S(=O)(=O)Nc2ccc(-c3ccc(OCC4NCCc5cc(O)c(O)cc54)cc3)cc2)cc1` (stereo not given): the IC50 in test [9] was 2000 nM; in test [11] it was 160 nM. The Activation in test [10] was found to be 23%; in test [4], 72%. Besides, the EC50 in test [1] came to 16 nM; in test [5], 580 nM; in [7], 2400 nM.

On to `CCCCCCNC(=O)Nc1ccc(S(=O)(=O)Nc2cccc(-c3ccc(OCC4NCCc5cc(O)c(O)cc54)cc3)c2)cc1` (stereo not given), for which the figures for the 50% inhibitory concentration (IC50) in [9] and in test [3] were 6500 nM and 990 nM, respectively. This compound also gave an EC50 in test [12] of 10 nM.

For the compound `CCCCCCNC(=O)Nc1ccc(S(=O)(=O)Nc2ccc(-c3cccc(CC4NCCc5cc(O)c(O)cc54)c3)cc2)cc1` (stereo not given), the EC50 is 600 nM in test [1], above 1000 nM in test [5] and above 1000 nM in [7]. For the same compound, the IC50 in test [3] and in test [8] was 100000 nM each time. Further, the Activation in test [4] is 64%; in test [13] it was 33%; in test [6], 12%.

`COc1cc(C[C@@H]2NCCc3cc(O)c(O)cc32)cc(OC)c1OC` [TRETOQUINOL]: a half-maximal response in test [1] (EC50) required 1.7 nM. Besides, the Activation in [4] was found to be 92%.

For the compound `CCCCCCNC(=O)Nc1ccc(S(=O)(=O)Nc2cccc(-c3ccc(CC4NCCc5cc(O)c(O)cc54)cc3)c2)cc1` (stereo not given), the EC50 in test [1] is 140 nM; in test [5], 1300 nM; in test [7], 970 nM. In addition, the Activation in [4] was determined as 100%; in test [6] it was 69%. Besides, the IC50 in [11] amounted to 32000 nM; in test [8], 10000 nM.

Take `COc1c(I)cc(CC2NCCc3nc(N)sc32)cc1I` (stereo not given): in test [1], a half-maximal effect (EC50) was put at 800 nM. Also, in test [3], the IC50 was determined as 56 nM. Further, in test [4], the Activation was found to be 36%.

Consider `CCCCCCNC(=O)Nc1ccc(S(=O)(=O)Nc2ccc3cc(OCC4NCCc5cc(O)c(O)cc54)ccc3c2)cc1` (stereo not given), for which the half-maximal inhibitory concentration (IC50) in [9] is 80000 nM; in test [3] it was above 100000 nM. Moreover, in test [1], the half-maximal effective concentration (EC50) turned out to be 78 nM. Further, the Activation in [4] came out at 72%.

For the compound `CCCCCCNC(=O)Nc1ccc(S(=O)(=O)Nc2ccc(OCC3NCCc4cc(O)c(O)cc43)cc2)cc1` (stereo not given), the concentration for half-maximal inhibition (IC50) in test [9] turned out to be 1000 nM; in [3] it was 300 nM. Further, the response in test [12] was half-maximal at 4 nM (EC50).

Turning to `CCCCCCNC(=O)Nc1ccc(S(=O)(=O)Nc2ccc(CC3NCCc4cc(O)c(O)cc43)cc2)cc1` (stereo not given), the half-inhibitory concentration (IC50) turned out to be 1200 nM in [9] and 200 nM in [3]. In addition, it took 66 nM to reach a half-maximal effect in test [1] (EC50). This compound yielded an Activation in test [4] of 82%.

For `CCCCCCNC(=O)Nc1ccc(S(=O)(=O)Nc2ccc(-c3ccc(CC4NCCc5cc(O)c(O)cc54)cc3)cc2)cc1` (stereo not given), the values for the EC50 in test [1], in test [5] and in test [7] were 6 nM, 340 nM and 1800 nM, respectively. Also, the Activation came out at 91% in [4] and 44% in test [6]. Also, the IC50 was found to be 3400 nM in test [11] and 3000 nM in test [8].

Regarding `CCCCCCNC(=O)Nc1ccc(S(=O)(=O)Nc2ccc3cc(CC4NCCc5cc(O)c(O)cc54)ccc3c2)cc1` (stereo not given), the IC50 stood at 1000 nM in test [9] and 300 nM in [3]. Further, the EC50 in test [12] is 7 nM.

The values are drawn from ChEMBL document CHEMBL1132774, “Tetrahydroisoquinoline derivatives containing a benzenesulfonamide moiety as potent, selective human beta3 adrenergic receptor agonists” (Bioorg Med Chem Lett, 2000).
